These results are taken from patent US20160272617A1, “SUBSTITUTED PHENYLALANINE DERIVATIVES” (BAYER PHARMA AKTIENGESELLSCHAFT, priority 2013, published 2016).

As a reminder, the IC50 is the point on the concentration scale where inhibition reaches its midpoint.

Counter-ions that a name gives are not always drawn.

In one assay the target is T1, human factor XIa (Homo sapiens, UniProt P03951).
T1 construct: purchased Kordia
The assay can be described thus: Measurement of FXIa inhibition (fluorogenic peptide substrate Boc-Glu(OBzl)-Ala-Arg-AMC). In kind it is biochemical. The settings on record: factor XIa from Kordia, 15 min preincubation, 30 min at 22° C., fluorescence. The protocol:
The factor XIa inhibition of the inventive substances is determined using a biochemical test system which utilizes the reaction of a peptidic factor XIa substrate to determine the enzymatic activity of human factor XIa. Here, factor XIa cleaves from the peptic factor XIa substrate the C-terminal aminomethylcoumarin (AMC), the fluorescence of which is measured. The determinations are carried out in microtitre plates.
Test substances are dissolved in dimethyl sulphoxide and serially diluted in dimethyl sulphoxide (3000 μM to 0.0078 μM; resulting final concentrations in the test: 50 μM to 0.00013 μM). In each case 1 μl of the diluted substance solutions is placed into the wells of white microtitre plates from Greiner (384 wells). Subsequently, the following are added successively: 20 μl of assay buffer (50 mmol/l Tris buffer pH 7.4; 100 mmol/l sodium chloride; 5 mmol/l calcium chloride; 0.1% bovine serum albumin) and 20 μl of factor XIa from Kordia (0.45 nM in assay buffer). After 15 min of incubation, the enzyme reaction is started by addition of 20 μl of the factor XIa substrate Boc-Glu(OBzl)-Ala-Arg-AMC dissolved in assay buffer (10 μM in assay buffer) from Bachem, the mixture is incubated at room temperature (22° C.) for 30 min and fluorescence is then measured (excitation: 360 nm, emission: 460 nm). The measured emissions of the test mixtures with test substance are compared to those of control mixtures without test substance (only dimethyl sulphoxide instead of test substance in dimethyl sulphoxide), and the IC50 values are calculated from the concentration/activity relationships.

A further assay concerns human and animal plasma. The assay can be described thus: Determination of anticoagulatory activity: activated partial thromboplastin time (aPTT) in plasma. As to conditions: concentration of test substance which brings about a 1.5-fold extension of the aPTT; plasma species not given. The protocol: The anticoagulatory activity of the test substances is determined in vitro in human and animal plasma (for example mouse, rat, rabbit, pig and dog plasma). To this end, blood is drawn off in a mixing ratio of sodium citrate/blood of 1:9 using a 0.11 molar sodium citrate solution as receiver. Immediately after the blood has been drawn off, it is mixed thoroughly and centrifuged at about 4000 g for 15 minutes. The supernatant is pipetted off.
The activated partial thromboolastin time (aPTT) is determined in the presence of varying concentrations of test substance or the corresponding solvent using a commercial test kit (C. K. Prest from Diagnostica Stago). The test compounds are incubated with the plasma and the PTT reagent (cephalin, kaolin) at 37° C. for 3 minutes. Coagulation is then started by addition of a 25 mM aqueous calcium chloride solution, and the time when coagulation occurs is determined. The concentration of test substance which brings about a 1.5-fold extension of the aPTT is determined.

T1 sequence (P03951 388-625 limits assumed): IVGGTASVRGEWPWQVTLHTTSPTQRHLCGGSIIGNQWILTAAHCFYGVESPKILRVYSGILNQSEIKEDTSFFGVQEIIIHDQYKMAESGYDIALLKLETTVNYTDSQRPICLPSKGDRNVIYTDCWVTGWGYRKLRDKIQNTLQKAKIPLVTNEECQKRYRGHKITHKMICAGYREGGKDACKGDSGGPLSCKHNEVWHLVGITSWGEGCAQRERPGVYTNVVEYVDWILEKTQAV
T1 sequence (P03951 19-387 partner limits assumed): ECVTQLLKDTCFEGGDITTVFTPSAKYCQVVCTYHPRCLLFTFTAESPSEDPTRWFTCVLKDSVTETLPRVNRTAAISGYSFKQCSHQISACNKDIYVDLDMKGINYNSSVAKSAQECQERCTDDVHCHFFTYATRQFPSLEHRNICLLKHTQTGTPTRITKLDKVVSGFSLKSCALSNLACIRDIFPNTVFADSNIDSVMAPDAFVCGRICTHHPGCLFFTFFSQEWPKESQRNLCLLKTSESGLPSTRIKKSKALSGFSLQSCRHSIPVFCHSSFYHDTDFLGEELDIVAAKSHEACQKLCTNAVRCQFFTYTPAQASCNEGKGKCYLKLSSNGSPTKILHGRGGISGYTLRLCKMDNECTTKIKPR

`Cc1cc(C(=O)N[C@H]2CC[C@H](O)CC2)ccc1-c1ccc(CC(NC(=O)[C@H]2CC[C@H](CN)CC2)C(=O)Nc2ccc(-c3nnc(C(F)(F)C(F)(F)C(=O)O)[nH]3)cc2)cc1` (mixture of isomers) [Example 103, 3-[5-(4-{[2-({[trans-4-(Aminomethyl)cyclohexyl]carbonyl}amino)-3-{4′-[(trans-4-hydroxycyclohexyl)carbamoyl]-2′-methylbiphenyl-4-yl}propanoyl]amino}phenyl)-4H-1,2,4-triazol-3-yl]-2,2,3,3-tetrafluoropropanoic acid hydrochloride (enantiomer mixture)] registered an IC50 against human factor XIa of 1.1 nM. In addition, in the assay on human and animal plasma, the “aPTT” value came to 0.1 µmol/L.

With `Cc1cc(C(=O)N[C@H]2CC[C@H](O)CC2)ccc1-c1ccc(CC(NC(=O)[C@H]2CC[C@H](CN)CC2)C(=O)Nc2ccc(-c3nnc(C(F)(F)C(F)(F)C(=O)O)[nH]3)cc2)cc1` (mixture of isomers) [Example 131, 3-[5-(4-{[2-({[trans-4-(Aminomethyl)cyclohexyl]carbonyl}amino)-3-{4′-[(trans-4-hydroxycyclohexyl)carbamoyl]-2′-methylbiphenyl-4-yl}propanoyl]amino}phenyl)-4H-1,2,4-triazol-3-yl]-2,2,3,3-tetrafluoropropanoic acid (enantiomer mixture)], the “aPTT” value in the assay on human and animal plasma is 0.2 µmol/L.

Compound `Cc1cc(C(=O)N[C@H]2CC[C@H](O)CC2)ccc1-c1ccc(C[C@H](NC(=O)[C@H]2CC[C@H](CN)CC2)C(=O)Nc2ccc(-c3nnc(C(F)(F)C(F)(F)C(=O)O)[nH]3)cc2)cc1` (single isomer, unassigned; enantiomer 1) [Example 104] returned an IC50 against human factor XIa of 0.4 nM. In the assay on human and animal plasma, the “aPTT” value stood at 0.05 µmol/L.

Compound `CCN(CC)CCNC(=O)c1ccc(-c2ccc(C[C@H](NC(=O)[C@H]3CC[C@H](CN)CC3)C(=O)Nc3ccc(-c4nn[nH]n4)cc3)cc2)c(C)c1.Cl` [Example 2, 4′-[(2S)-2-({[trans-4-(Aminomethyl)cyclohexyl]carbonyl}amino)-3-oxo-3-{[4-(2H-tetrazol-5-yl)phenyl]amino}propyl]-N-[2-(diethylamino)ethyl]-2-methylbiphenyl-4-carboxamide hydrochloride] came in with an IC50 at human factor XIa of 4.9 nM. Also, in the assay with human and animal plasma, the “aPTT” value turned out to be 0.14 µmol/L.

Regarding `Cc1cc(C(=O)NCCN)ccc1-c1ccc(C[C@H](NC(=O)[C@H]2CC[C@H](CN)CC2)C(=O)Nc2ccc3cn[nH]c3c2)cc1` [Example 3, N-(2-Aminoethyl)-4′-[(2S)-2-({[trans-4-(aminomethyl)cyclohexyl]carbonyl}amino)-3-(1H-indazol-6-ylamino)-3-oxopropyl]-2-methylbiphenyl-4-carboxamide hydrochloride], the IC50 on human factor XIa came to 11 nM. Further, the “aPTT” value in the assay with human and animal plasma is 0.2 µmol/L.

Compound `Cc1cc(C(=O)NC2CCNCC2)ccc1-c1ccc(C[C@H](NC(=O)[C@H]2CC[C@H](CN)CC2)C(=O)Nc2ccc3cn[nH]c3c2)cc1` [Example 4, 4′-[(2S)-2-({[trans-4-(Aminomethyl)cyclohexyl]carbonyl}amino)-3-(1H-indazol-6-ylamino)-3-oxopropyl]-2-methyl-N-(piperidin-4-yl)biphenyl-4-carboxamide hydrochloride] showed an IC50 against human factor XIa of 11.9 nM. Moreover, in the assay on human and animal plasma, the “aPTT” value was 0.21 µmol/L.

At human factor XIa, `Cc1cc(C(=O)N2CCNCC2)ccc1-c1ccc(C[C@H](NC(=O)[C@H]2CC[C@H](CN)CC2)C(=O)Nc2ccc3cn[nH]c3c2)cc1` [Example 5, trans-4-(Aminomethyl)-N-{(2S)-1-(1H-indazol-6-ylamino)-3-[2′-methyl-4′-(piperazin-1-ylcarbonyl)biphenyl-4-yl]-1-oxopropan-2-yl}cyclohexanecarboxamide hydrochloride] yielded a concentration for half-maximal inhibition (IC50) of 16 nM. For the same compound, in the assay with human and animal plasma, the “aPTT” value worked out at 0.21 µmol/L.

Consider `CCN(CC)CCNC(=O)c1ccc(-c2ccc(C[C@H](NC(=O)[C@H]3CC[C@H](CN)CC3)C(=O)Nc3ccc4cn[nH]c4c3)cc2)c(C)c1` [Example 6, 4′-[(2S)-2-({[trans-4-(Aminomethyl)cyclohexyl]carbonyl}amino)-3-(1H-indazol-6-ylamino)-3-oxopropyl]-N-[2-(diethylamino)ethyl]-2-methylbiphenyl-4-carboxamide hydrochloride], for which it took 17 nM to reach half-maximal inhibition on human factor XIa (IC50). In addition, in the assay with human and animal plasma, the “aPTT” value is 0.21 µmol/L.

Turning to `Cc1cc(C(=O)N[C@@H]2CCNC2)ccc1-c1ccc(C[C@H](NC(=O)[C@H]2CC[C@H](CN)CC2)C(=O)Nc2ccc(-c3nn[nH]n3)cc2)cc1` [Example 8, 4′-[(2S)-2-({[trans-4-(Aminomethyl)cyclohexyl]carbonyl}amino)-3-oxo-3-{[4-(2H-tetrazol-5-yl)phenyl]amino}propyl]-2-methyl-N-[(3R)-pyrrolidin-3-yl]biphenyl-4-carboxamide hydrochloride], on human factor XIa, the IC50 stood at 2.5 nM. For the same compound, the “aPTT” value in the assay on human and animal plasma was 0.09 µmol/L.

Take `Cc1cc(C(=O)N[C@H]2CCNC2)ccc1-c1ccc(C[C@H](NC(=O)[C@H]2CC[C@H](CN)CC2)C(=O)Nc2ccc(-c3nn[nH]n3)cc2)cc1` [Example 9, 4′-[(2S)-2-({[trans-4-(Aminomethyl)cyclohexyl]carbonyl}amino)-3-oxo-3-{[4-(2H-tetrazol-5-yl)phenyl]amino}propyl]-2-methyl-N-[(3S)-pyrrolidin-3-yl]biphenyl-4-carboxamide hydrochloride]: it took 1.7 nM to reach half-maximal inhibition against human factor XIa (IC50). In the assay with human and animal plasma, the “aPTT” value worked out at 0.09 µmol/L.

Take `CCN(CC)CCNC(=O)c1ccc(-c2ccc(C[C@H](NC(=O)[C@H]3CC[C@H](CN)CC3)C(=O)Nc3ccc(-c4nn[nH]n4)cc3)cc2)c(Cl)c1` [Example 10, 4′-[(2S)-2-({[trans-4-(Aminomethyl)cyclohexyl]carbonyl}amino)-3-oxo-3-{[4-(2H-tetrazol-5-yl)phenyl]amino}propyl]-2-chloro-N-[2-(diethylamino)ethyl]biphenyl-4-carboxamide hydrochloride]: the half-maximal inhibitory concentration (IC50) on human factor XIa stood at 4.4 nM. Moreover, in the assay with human and animal plasma, the “aPTT” value is 0.13 µmol/L.

On human factor XIa, `NC[C@H]1CC[C@H](C(=O)N[C@@H](Cc2ccc(-c3ccc(C(=O)NC4CCNCC4)cc3Cl)cc2)C(=O)Nc2ccc(-c3nn[nH]n3)cc2)CC1` [Example 11, 4′-[(2S)-2-({[trans-4-(Aminomethyl)cyclohexyl]carbonyl}amino)-3-oxo-3-{[4-(2H-tetrazol-5-yl)phenyl]amino}propyl]-2-chloro-N-(piperidin-4-yl)biphenyl-4-carboxamide hydrochloride] showed an IC50 of 2.5 nM. Besides, the “aPTT” value in the assay on human and animal plasma was determined as 0.08 µmol/L.

As to `Cc1cc(C(=O)NC2CCC(O)C2)ccc1-c1ccc(CC(NC(=O)C2CCC(CN)CC2)C(=O)Nc2ccc(-c3nnn[nH]3)c(F)c2)cc1` [Example 92, 4′-[(2S)-2-({[trans-4-(Aminomethyl)cyclohexyl]carbonyl}amino)-3-{[3-fluoro-4-(2H-tetrazol-5-yl)phenyl]amino}-3-oxopropyl]-N-(3-hydroxycyclopentyl)-2-methylbiphenyl-4-carboxamide hydrochloride], the IC50 at human factor XIa came out at 1.8 nM.

Regarding `Cc1cc(C(=O)NC2CCN(C)CC2)ccc1-c1ccc(C[C@H](NC(=O)[C@H]2CC[C@H](CN)CC2)C(=O)Nc2ccc(-c3nc(C(F)(F)C(F)(F)C(=O)O)n[nH]3)cc2)cc1` [Example 130, 3-[5-(4-{[(2S)-2-({[trans-4-(Aminomethyl)cyclohexyl]carbonyl}amino)-3-{2′-methyl-4′-[(1-methylpiperidin-4-yl)carbamoyl]biphenyl-4-yl}propanoyl]amino}phenyl)-1H-1,2,4-triazol-3-yl]-2,2,3,3-tetrafluoropropanoic acid], in the assay with human and animal plasma, the “aPTT” value stood at 0.12 µmol/L.
